Source: the supplement of paper PMC10307832

Key:
Test in all cases: relative viability (nuclei count vs DMSO), 5 days (fraction); higher = more cells survive
Imatinib + Palbociclib = compound: Cc1ccc(NC(=O)c2ccc(CN3CCN(C)CC3)cc2)cc1Nc1nccc(-c2cccnc2)n1 [Imatinib] + CC(=O)c1c(C)c2cnc(Nc3ccc(N4CCNCC4)cn3)nc2n(C2CCCC2)c1=O [Palbociclib] (partner 0.5 µM)
Outline: (§1)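 The day after seeding in 1536-well plates, lung cancer cell lines were treated by pin tool with a single drug, or with a fixed anchor-drug dose together with five library-drug doses (not always all listed) in √10 steps. After 5 days, a combined fix-and-stain solution (final 0.05% Triton X-100, 1% formaldehyde, 1 ug/ml Hoechst) was added. Nuclei counted on 4× images gave relative viability as treated counts over vehicle counts, reported as the median of duplicate plates.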

Imatinib + Tozasertib = compound: Cc1ccc(NC(=O)c2ccc(CN3CCN(C)CC3)cc2)cc1Nc1nccc(-c2cccnc2)n1 [Imatinib] + Cc1cc(Nc2cc(N3CCN(C)CC3)nc(Sc3ccc(NC(=O)C4CC4)cc3)n2)n[nH]1 [Tozasertib] (partner 0.1 µM)
Outline: as §1

Imatinib + Foretinib = compound: Cc1ccc(NC(=O)c2ccc(CN3CCN(C)CC3)cc2)cc1Nc1nccc(-c2cccnc2)n1 [Imatinib] + COc1cc2c(Oc3ccc(NC(=O)C4(C(=O)Nc5ccc(F)cc5)CC4)cc3F)ccnc2cc1OCCCN1CCOCC1 [Foretinib] (partner 0.25 µM)
Outline: as §1

Imatinib + AZD7762 = compound: Cc1ccc(NC(=O)c2ccc(CN3CCN(C)CC3)cc2)cc1Nc1nccc(-c2cccnc2)n1 [Imatinib] + NC(=O)Nc1cc(-c2cccc(F)c2)sc1C(=O)N[C@H]1CCCNC1 [AZD7762] (partner 0.2 µM)
Outline: as §1

| Cell Line | relative viability (Imatinib + Palbociclib; first compound 0.02 µM) | relative viability (Imatinib + Palbociclib; first compound 0.2 µM) | relative viability (Imatinib + Palbociclib; first compound 0.6325 µM) | relative viability (Imatinib + Palbociclib; first compound 2 µM) | relative viability (Imatinib + Tozasertib; first compound 0.02 µM) | relative viability (Imatinib + Tozasertib; first compound 0.06325 µM) | relative viability (Imatinib + Tozasertib; first compound 0.2 µM) | relative viability (Imatinib + Tozasertib; first compound 0.6325 µM) | relative viability (Imatinib + Tozasertib; first compound 2 µM) | relative viability (Imatinib + Foretinib; first compound 0.02 µM) | relative viability (Imatinib + Foretinib; first compound 0.06325 µM) | relative viability (Imatinib + Foretinib; first compound 0.2 µM) | relative viability (Imatinib + Foretinib; first compound 0.6325 µM) | relative viability (Imatinib + Foretinib; first compound 2 µM) | relative viability (Imatinib + AZD7762; first compound 0.02 µM) | relative viability (Imatinib + AZD7762; first compound 0.2 µM) | relative viability (Imatinib + AZD7762; first compound 0.6325 µM) | relative viability (Imatinib + AZD7762; first compound 2 µM) | relative viability (Imatinib + Palbociclib; first compound 0.06325 µM) | relative viability (Imatinib + AZD7762; first compound 0.06325 µM) |
| --- | --- | --- | --- | --- | --- | --- | --- | --- | --- | --- | --- | --- | --- | --- | --- | --- | --- | --- | --- | --- |
| LXF-289 | 0.602 | 0.655 | 0.556 | 0.578 | 0.22 | 0.162 | 0.21 | 0.232 | 0.187 | 1.01 | 0.914 | 1.14 | 0.848 | 0.95 | 1.13 | 1.25 | 1.04 | 1.09 | – | – |
| NCI-H23 | 0.455 | 0.521 | 0.467 | 0.479 | 0.441 | 0.37 | 0.322 | 0.285 | 0.269 | 1.13 | 1.15 | 1.2 | 1.07 | 1.13 | 0.27 | 0.23 | 0.203 | 0.21 | 0.66 | 0.285 |
| NCI-H322M | 0.474 | 0.501 | 0.423 | 0.495 | 0.483 | 0.507 | 0.491 | 0.432 | 0.471 | 1.09 | 1.03 | 1.01 | 0.883 | 0.935 | 0.565 | 0.529 | 0.608 | 0.586 | 0.518 | 0.673 |
| NCI-H358 | 0.159 | 0.153 | 0.142 | 0.146 | 0.103 | 0.121 | 0.102 | 0.0961 | 0.0939 | 0.685 | 0.519 | 0.726 | 0.619 | 0.648 | 0.559 | 0.489 | 0.574 | 0.521 | 0.138 | – |
| NCI-H441 | 0.22 | 0.229 | 0.229 | 0.233 | 0.58 | 0.644 | 0.667 | 0.612 | 0.412 | 0.72 | 1.1 | 1.11 | 1.16 | 0.916 | 1.34 | 1.17 | 1.1 | 1.08 | 0.213 | 1.34 |
| NCI-H460 | 0.278 | 0.191 | 0.196 | 0.104 | 0.445 | 0.576 | 0.417 | 0.0905 | 0.0547 | 1.12 | 0.918 | 1.15 | 0.909 | 1.07 | 0.658 | 0.606 | 0.489 | 0.509 | 0.22 | 0.783 |
| NCI-H647 | 0.532 | 0.402 | 0.375 | 0.407 | 0.554 | 0.242 | 0.0832 | 0.28 | 0.321 | 1.51 | 1.27 | 1.57 | 1.25 | 1.06 | 0.708 | 0.383 | 0.383 | 0.381 | 0.39 | 0.519 |
| NCI-H650 | 0.303 | 0.353 | 0.349 | 0.298 | 0.832 | 0.682 | 0.851 | 0.697 | 0.764 | 1.07 | 0.78 | 1.03 | 1.17 | 0.977 | 1.11 | – | 1.03 | 0.979 | 0.356 | 0.882 |
| NCI-H727 | 0.577 | 0.599 | 0.569 | 0.601 | 0.59 | 0.59 | 0.518 | 0.543 | 0.509 | 0.969 | 0.898 | 0.891 | 0.712 | 0.834 | 0.651 | 0.506 | 0.573 | 0.507 | – | – |
| NCI-H838 | 0.254 | 0.241 | 0.254 | 0.247 | 0.241 | 0.318 | 0.28 | 0.307 | 0.275 | 1.15 | 1.17 | 1.07 | 1.02 | 1.02 | 1.04 | 0.961 | 0.954 | 1.02 | 0.255 | 1.03 |
| NCI-H1355 | 0.433 | 0.426 | 0.398 | 0.39 | 0.589 | – | 0.51 | 0.395 | 0.349 | 1.05 | – | 1.07 | 0.964 | 0.983 | 0.988 | 0.83 | 0.63 | 0.571 | – | – |
| NCI-H1395 | 0.622 | 0.579 | 0.526 | 0.589 | 0.679 | 0.773 | 0.76 | 0.663 | 0.7 | 0.952 | 1.15 | 1 | – | 1.02 | 0.369 | 0.343 | 0.376 | 0.393 | – | – |
| NCI-H1437 | 0.329 | 0.324 | 0.343 | 0.266 | 0.449 | 0.453 | 0.411 | 0.408 | 0.373 | 1.37 | 1.26 | 1.33 | 1.22 | 1.24 | 1.24 | 1.09 | 1.04 | 1.14 | 0.288 | 1.07 |
| NCI-H1651 | 0.478 | 0.564 | 0.492 | 0.543 | 0.796 | 0.659 | 0.649 | 0.535 | 0.436 | 0.902 | 0.619 | 0.87 | 0.79 | 0.77 | 0.543 | 0.488 | 0.468 | 0.403 | 0.543 | 0.267 |
| NCI-H1666 | 0.678 | 0.642 | 0.705 | 0.621 | 0.622 | 0.623 | 0.603 | 0.665 | 0.574 | 0.926 | 0.911 | 0.943 | 1.15 | 0.966 | 0.902 | 0.792 | 0.849 | 0.809 | 0.628 | 0.873 |
| NCI-H1734 | 0.348 | 0.402 | 0.346 | 0.351 | 0.243 | 0.268 | 0.278 | 0.259 | 0.264 | 1.06 | 1.2 | 0.939 | 0.776 | 0.87 | 0.673 | 0.516 | 0.48 | 0.484 | – | – |
